Results reported in patent US20120214760A1, “TREATMENT OF URINARY TRACT INFECTIONS WITH ANTIBACTERIAL AMINOGLYCOSIDE COMPOUNDS” (Achaogen, Inc., priority 2009, published 2012).
Converted amounts (≈) assume the structure as drawn.

Assays:
[1] = system: Pathogens (169 in total); test: Susceptibility testing, all urinary tract infection isolates; format: cell-based; settings: all isolates
Procedure: (§1) Minimum inhibitory concentrations (MIC) were determined by reference Clinical and Laboratory Standards Institute (CLSI) broth microdilution methods per M7-A7 [2006]. Quality control ranges utilizing E. coli ATCC 25922, P. aeruginosa ATCC 27853 and S. aureus ATCC 29213, and interpretive criteria for comparator agents were as published in CLSI M100-S17 [2007]. Briefly, serial two-fold dilutions of the test compounds were prepared at 2× concentration in Mueller Hinton Broth. The compound dilutions were mixed in 96-well assay plates in a 1:1 ratio with bacterial inoculum. The inoculum was prepared by suspension of a colony from an agar plate that was prepared the previous day. Bacteria were suspended in sterile saline and added to each assay plate to obtain a final concentration of 5×10^5 CFU/mL. The plates were incubated at 35° C. for 20 hours in ambient air.
(§2) In order to determine the activity of representative antibacterial aminoglycoside compounds against bacterial species that commonly cause complicated urinary tract infections worldwide, isolates were collected from 47 medical centers in the U.S. and Europe (10 countries) from urine or blood culture with the source of bacteremia documented as a urinary tract infection. Strains were susceptibility tested against Example 1, gentamicin, amikacin and 10 comparators by CLSI broth microdilution. These MIC assays were conducted following the same protocol as set forth in Example 110. Pathogens (169 in total) included E. coli, Klebsiella spp., Enterobacter spp., Citrobacter spp., P. mirabilis, M. Morganii, P. aeruginosa, S. aureus and S. saprophyticus.

[2] = system: K. pneumoniae ATCC 43816, Susceptible; test: Murine neutropenic thigh model; format: in vivo
Procedure: (§3) The in vivo activity of Example 1 in the mouse neutropenic thigh model (Andes and Craig. Antimicrob Agents Chemother. 2002, 46:1665-1670) was determined against seven bacterial strains including susceptible Escherichia coli and Klebsiella pneumoniae; multi-drug resistant (MDR) clinical isolates of E. coli and K. pneumoniae that display resistance to multiple antibiotics (including AGs); MRSA; and two K. pneumoniae carbapenemases (KPC)-expressing strains (see Table 5). For this efficacy model, groups of six CD-1 mice were rendered neutropenic by two intraperitoneal injections of cyclophosphamide. The first injection was 150 mg/kg three days prior to infection (day −4), and the second injection was 100 mg/kg one day prior to infection (day −1). On study day 0, animals were inoculated intramuscularly (0.1 ml) with a known number of colony forming units (CFU) of the specified bacterial strain (ATCC 25922, AECO 1003, ATCC 43816, AKPN 1073, AKPN 1109, ATCC 33591 or ASMA 1030), tailored to the virulence of each strain in the model to maximize bacterial load while avoiding mortality in the untreated control arms. Antibiotics were administered via subcutaneous injection at 2 and 14 hours after bacterial challenge. At 26 hours, infected thigh tissue was harvested, homogenized, and plated to count CFU. Untreated control animals were harvested at 2 hours post-infection to assess the initial bacterial load and at 26 hours post-infection to measure growth in the absence of antibiotic treatment.

[3] = system: E. coli ATCC 25922, Susceptible; test: Murine neutropenic thigh model; format: in vivo
Procedure: as §3

[4] = system: E. coli AECO 1003, MDR; test: MIC of thigh model strain; format: cell-based; settings: Escherichia coli; Table 5; E. coli MDR AECO 1003; read-out: MIC
Procedure: as §1

[5] = system: K. pneumoniae ATCC 43816, Susceptible; test: MIC of thigh model strain; format: cell-based; settings: Klebsiella pneumoniae, ATCC43816; Table 5; K. pneumoniae Susceptible ATCC 43816
Procedure: as §1

[6] = system: S. marcescens ASMA 1030, KPC; test: MIC of thigh model strain; format: cell-based; settings: Serratia marcescens; Table 5; S. marcescens KPC ASMA 1030
Procedure: as §1

[7] = system: K. pneumoniae AKPN 1109, KPC; test: MIC of thigh model strain; format: cell-based; settings: Klebsiella pneumoniae; Table 5; K. pneumoniae KPC AKPN 1109
Procedure: as §1

[8] = system: K. pneumoniae AKPN 1073, MDR; test: MIC of thigh model strain; format: cell-based; settings: Klebsiella pneumoniae; Table 5; K. pneumoniae MDR AKPN 1073
Procedure: as §1

[9] = system: S. aureus ATCC 33591, MRSA; test: MIC of thigh model strain; format: cell-based; settings: Staphylococcus aureus; Table 5; S. aureus MRSA ATCC 33591; read-out: MIC
Procedure: as §1

[10] = system: S. saprophyticus (19); test: MIC, urinary tract infection isolates; format: cell-based; settings: Staphylococcus saprophyticus; S. saprophyticus isolates
Procedure: as §1, §2

[11] = system: E. coli, Klebsiella spp., Enterobacter spp. and Citrobacter spp.; test: MIC, urinary tract infection isolates; format: cell-based; settings: Escherichia coli, range among E. coli
Procedure: as §1, §2

[12] = system: P. aeruginosa (19); test: MIC, urinary tract infection isolates; format: cell-based; settings: Pseudomonas aeruginosa; P. aeruginosa isolates
Procedure: as §1, §2

[13] = system: P. mirabilis and M. morganii; test: MIC, urinary tract infection isolates; format: cell-based
Procedure: as §1, §2

[14] = system: S. aureus (23); test: MIC, urinary tract infection isolates; format: cell-based; settings: Staphylococcus aureus; S. aureus isolates, including 43.5% oxacillin-resistant strains
Procedure: as §1, §2

[15] = system: K. pneumoniae AKPN 1073, MDR; test: Murine neutropenic thigh model; format: in vivo
Procedure: FIG. 2 is a line graph showing dose-responses of Example 1, gentamicin, and imipenem (positive control) in a murine neutropenic thigh model against an AG-resistant clinical isolate of K. pneumoniae (AKPN 1073). Activity is presented as the log10 difference in CFU/thigh after 24 hours of antibiotic treatment compared to CFU/thigh just prior to antibiotic treatment (2 hours post-infection). Total dose per 24 hours is shown; dosing was q12 hours. 6 mice per group. Inoculum=1.3×10^4 CFU.
as §3

[16] = system: A. calcoaceticus AACA005, AAC(6′)-I; test: MIC, aminoglycoside resistant strain; format: cell-based; settings: Table 3
Procedure: as §1
(§4) These MIC assays were conducted following the same protocol as set forth in Example 110. As shown, substituted sisomicin derivatives with groups other than methyl at the 6′-position have improved activity against strains expressing the AAC6′-modifying enzymes.

[17] = system: E. coli AECO040, AAC(6′)-I; test: MIC, aminoglycoside resistant strain; format: cell-based; settings: Table 3
Procedure: as §1, §4

[18] = system: S. marcescens ASMA003, ANT(2″) + AAC(6′); test: MIC, aminoglycoside resistant strain; format: cell-based; settings: Table 3
Procedure: as §1, §4

## CN[C@@H]1[C@@H](O)[C@@H](O[C@@H]2[C@@H](O)[C@H](O[C@H]3OC(CNCCO)=CC[C@H]3N)[C@@H](N)C[C@H]2NC(=O)[C@@H](O)CCN)OC[C@]1(C)O [Example 1, 6′-(2-Hydroxy-ethyl)-1-(4-amino-2(S)-hydroxy-butyryl)-sisomicin]
[1]; at ≦4 μg/ml
  % of strains inhibited: 90.5%
[1]; at ≦16 μg/ml
  % of strains inhibited: 98.8%
[2]
  ED50/MIC: 7.4
[2]; Klebsiella pneumoniae, ATCC43816, sc, neutropenic CD-1 mice, subcutaneous at 2 and 14 hours
  ED50: 3.7 mg/kg
[3]
  ED50/MIC: 8.4
[3]; Escherichia coli, ATCC25922, sc, neutropenic CD-1 mice, subcutaneous at 2 and 14 hours
  ED50: 8.4 mg/kg
[4]
  MIC: 1 µg/mL
[5]
  MIC: 0.5 µg/mL
[6]
  MIC: 1 µg/mL
[7]
  MIC: 0.25 to 0.5 µg/mL
[8]
  MIC: 0.5 µg/mL
[9]
  MIC: 4 to 8 µg/mL
[10]
  MIC50: ≤ 0.25 µg/mL
  MIC90: 0.5 µg/mL (≈ 0.844 µM)
[11]
  MIC90: 0.5 to 2 µg/mL (≈ 0.844 to 3.37 µM)
[12]
  MIC90: 16 µg/mL (≈ 27 µM)
[13]
  MIC90: 4 to 8 µg/mL (≈ 6.75 to 13.5 µM)
[14]
  MIC90: 2 µg/mL (≈ 3.37 µM)
[15]; K. pneumoniae AKPN 1073
  ED50/MIC: 6.6
[15]; Klebsiella pneumoniae, sc, neutropenic CD-1 mice, subcutaneous at 2 and 14 hours, K. pneumoniae AKPN 1073
  ED50: 3.3 mg/kg
[15]; two highest dosages, challenge 1.3×10^4 CFU AKPN 1073, FIG. 2
  bacterial load after 24 hours of treatment versus initial bacterial load at 2 hours post-inoculation: reduced to below the level of the initial bacterial load
[16]
  MIC AACA005: 2 µg/mL (≈ 3.37 µM)
[17]
  MIC AECO040: 0.5 µg/mL (≈ 0.844 µM)
[18]
  MIC ASMA003: 2 µg/mL (≈ 3.37 µM)
